According to PubChem BioAssay AID200 (DTP/NCI, 2004):
Values joined by “and” are separate entries in the source; they are usually repeats but may differ in a detail not shown here. Equal values may be shown once. Toxic doses and inconclusive results are not listed. How the source made its calls: active means survival T/C of 150% or more; inactive means T/C below 125% in these data. *1 amine or outer side, *2 acyl side, *3 side chain or, on linkers, in order; H or OH if unused. Where a SMILES comes first, the peptide text is derived from it. Bridges are numbered along the chain shown (N, C = ends). Roman numbers before positions name the chains, in order. [ ]: non-standard residue; d: D form. Actinocin(9to1) = Cc1c2oc3c(C)ccc(C(=O)[*:1])c3nc-2c(C(=O)[*:2])c(N)c1=O; aThr = C[C@H](O)[C@H](N)C(=O)O; NMeV = CN[C@H](C(=O)O)C(C)C; Sar = CNCC(=O)O

Tested on: B6C3F1 mice, B16 melanoma ip, median survival T/C
Test: NCI In Vivo Anticancer Drug Screen. Data for tumor model B16 Melanoma (intraperitoneal) in B6C3F1 mice
Settings: endpoint: median survival time, higher = longer survival
Method in brief: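 Readout: survival or tumor size in treated mice relative to vehicle controls (T/C). Model uses transplantable tumors grown in mice.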

[1] = dose: 12.5 mg/kg/injection, schedule: Q01DX009 (ip), vehicle: saline with Tween-80
[2] = dose: 25.0 mg/kg/injection, schedule: Q01DX009 (ip), vehicle: saline with Tween-80
[3] = dose: 50.0 mg/kg/injection, schedule: Q01DX009 (ip), vehicle: saline with Tween-80
[4] = dose: 100.0 mg/kg/injection, schedule: Q01DX009 (ip), vehicle: saline with Tween-80
[5] = dose: 200.0 mg/kg/injection, schedule: Q01DX009 (ip), vehicle: saline with Tween-80
[6] = dose: 400.0 mg/kg/injection, schedule: Q01DX009 (ip), vehicle: saline with Tween-80
[7] = dose: 12.5 mg/kg/injection, schedule: Q01DX009 (ip), vehicle: Klucel (hydroxypropylcellulose) (HPC)
[8] = dose: 25.0 mg/kg/injection, schedule: Q01DX009 (ip), vehicle: Klucel (hydroxypropylcellulose) (HPC)
[9] = dose: 50.0 mg/kg/injection, schedule: Q01DX009 (ip), vehicle: Klucel (hydroxypropylcellulose) (HPC)
[10] = dose: 100.0 mg/kg/injection, schedule: Q01DX009 (ip), vehicle: Klucel (hydroxypropylcellulose) (HPC)
[11] = dose: 200.0 mg/kg/injection, schedule: Q01DX009 (ip), vehicle: Klucel (hydroxypropylcellulose) (HPC)
[12] = dose: 400.0 mg/kg/injection, schedule: Q01DX009 (ip), vehicle: Klucel (hydroxypropylcellulose) (HPC)
[13] = dose: 6.25 micrograms/kg/injection, schedule: Q01DX009 (ip), vehicle: saline + alcohol
[14] = dose: 12.5 micrograms/kg/injection, schedule: Q01DX009 (ip), vehicle: saline + alcohol
[15] = dose: 50.0 micrograms/kg/injection, schedule: Q01DX009 (ip), vehicle: saline + alcohol
[16] = dose: 12.5 mg/kg/injection, schedule: Q01DX009 (ip), vehicle: saline
[17] = dose: 25.0 mg/kg/injection, schedule: Q01DX009 (ip), vehicle: saline

Measured: T/C

CCCCCCCCCCCCN1C(C)=CS/C1=C\C=C\c1scc(C)[n+]1CCCCCCCCCCCC
inactive: dose: 0.78 mg/kg/injection, schedule: Q01DX009 (ip), vehicle: saline with Tween-80 99 % of control and 108 % of control | dose: 1.56 mg/kg/injection, schedule: Q01DX009 (ip), vehicle: saline with Tween-80 99 % of control and 105 % of control | dose: 3.12 mg/kg/injection, schedule: Q01DX009 (ip), vehicle: saline with Tween-80 108 % of control

O=C(O)C1Cc2nc[nH]c2CN1CO (stereo not drawn)
inactive: [1] 104 % of control | [2] 102 % of control | [3] 105 % of control | [4] 109 % of control | [5] 106 % of control | [6] 104 % of control

O=c1ssc(=Nc2ccccc2)n1-c1ccccc1
inactive: [7] 98 % of control | [8] 101 % of control | [9] 96 % of control | [10] 97 % of control | [11] 92 % of control | [12] 96 % of control

COc1cc(NS(C)(=O)=O)ccc1Nc1c2ccc(Cl)cc2nc2c(OC)cccc12
inactive: dose: 2.0 mg/kg/injection, schedule: Q01DX005 (iv), vehicle: water 111 % of control | dose: 4.0 mg/kg/injection, schedule: Q01DX001 (iv), vehicle: water 101 % of control | dose: 8.0 mg/kg/injection, schedule: Q01DX001 (iv), vehicle: water 102 % of control | dose: 16.0 mg/kg/injection, schedule: Q01DX001 (iv), vehicle: water 100 % of control
active: dose: 2.0 mg/kg/injection, schedule: Q01DX005 (ip), vehicle: water 165 % of control | dose: 4.0 mg/kg/injection, schedule: Q01DX005 (ip), vehicle: water 174 % of control | dose: 8.0 mg/kg/injection, schedule: Q01DX005 (ip), vehicle: water 178 % of control

CC(=O)Nc1cscc1NC(C)=O
inactive: [2] 94 % of control and 102 % of control | [3] 111 % of control and 100 % of control | [4] 94 % of control | [5] 108 % of control and 99 % of control | [6] 96 % of control and 104 % of control

CC1[C@@H]2CC=C3[C@H]4CCC5Cc6nc7c(nc6C[C@@]5(C)C4CC(=O)[C@]32CO[C@]12OC(C)(C)CC2O)CC1CC[C@@H]2C3=C[C@H]4O[C@@]5(O[C@@](C)(CO)C[C@@H]5O)C(C)[C@@]4(O)[C@]3(C)[C@@H](O)CC2[C@]1(C)C7 (stereo partly drawn)
inactive: [13] 101 % of control | [14] 98 % of control | dose: 25.0 micrograms/kg/injection, schedule: Q01DX009 (ip), vehicle: saline + alcohol 98 % of control | [15] 102 % of control

OCC1OC(n2cnc3c(NO)ncnc32)C(O)C1O (stereo not drawn)
inactive: [7] 101 % of control and 105 % of control | [8] 93 % of control and 100 % of control | [9] 96 % of control and 98 % of control | [10] 97 % of control and 101 % of control | [11] 91 % of control and 95 % of control | [12] 86 % of control and 87 % of control

Clc1ccc(CN2COc3c(ccc4cccnc34)C2)cc1Cl
inactive: [1] 102 % of control | [2] 109 % of control | [3] 92 % of control

OC(CCl)CN1CC[N+]2(CC1)CC[N+]1(CCN(CC(O)CCl)CC1)CC2 (stereo not drawn)
active: [16] 172 % of control | [17] 183 % of control
inactive: dose: 4.68 mg/kg/injection, schedule: Q01DX009 (ip), vehicle: saline 118 % of control | dose: 9.37 mg/kg/injection, schedule: Q01DX009 (ip), vehicle: saline 106 % of control | dose: 18.75 mg/kg/injection, schedule: Q01DX009 (ip), vehicle: saline 98 % of control | dose: 37.5 mg/kg/injection, schedule: Q01DX009 (ip), vehicle: saline 106 % of control

Cc1c2oc3c(C)ccc(C(=O)N[C@@H]4C(=O)N[C@H](C(C)C)C(=O)N5CCC[C@H]5C(=O)N(C)CC(=O)N(C)[C@@H](C(C)C)C(=O)O[C@H]4C)c3nc-2c(C(=O)N[C@@H]2C(=O)N[C@H](C(C)C)C(=O)N3CCC[C@H]3C(=O)N(C)CC(=O)N(C)[C@@H](C(C)C)C(=O)O[C@H]2C)c(N)c1=O (I: [aThr][dV]P[Sar][NMeV] / II: [aThr][dV]P[Sar][NMeV]; ester I:1-I:C, II:1-II:C; linker I:N-II:N via Actinocin(9to1))
active: dose: 25.0 micrograms/kg/injection, schedule: Q01DX009 (ip), vehicle: water 151 % of control | [15] 172 % of control | dose: 50.0 micrograms/kg/injection, schedule: Q01DX009 (ip), vehicle: water 171 % of control | dose: 100.0 micrograms/kg/injection, schedule: Q01DX009 (ip), vehicle: saline + alcohol 160 % of control and 166 % of control | dose: 100.0 micrograms/kg/injection, schedule: Q01DX009 (ip), vehicle: water 181 % of control | dose: 200.0 micrograms/kg/injection, schedule: Q01DX009 (ip), vehicle: saline + alcohol 159 % of control and 174 % of control
inactive: [13] 118 % of control | dose: 6.25 micrograms/kg/injection, schedule: Q01DX009 (ip), vehicle: water 117 % of control | dose: 6.3 micrograms/kg/injection, schedule: Q01DX009 (ip), vehicle: saline + alcohol 108 % of control and 110 % of control | [14] 115 % of control

COc1ccccc1N=Nc1cc(S(=O)(=O)O)c2ccccc2c1O
inactive: [16] 95 % of control | [17] 92 % of control | dose: 50.0 mg/kg/injection, schedule: Q01DX009 (ip), vehicle: saline 98 % of control | [5] 87 % of control

NC(Cc1ccc(N(CCCl)Cc2ccccc2)cc1)C(=O)O (stereo not drawn)
inactive: dose: 0.78 mg/kg/injection, schedule: Q01DX009 (ip), vehicle: distilled water + Tween-80 99 % of control | dose: 1.56 mg/kg/injection, schedule: Q01DX009 (ip), vehicle: distilled water + Tween-80 108 % of control | dose: 3.12 mg/kg/injection, schedule: Q01DX009 (ip), vehicle: distilled water + Tween-80 115 % of control and 100 % of control | dose: 6.25 mg/kg/injection, schedule: Q01DX009 (ip), vehicle: distilled water + Tween-80 123 % of control and 103 % of control | dose: 12.5 mg/kg/injection, schedule: Q01DX009 (ip), vehicle: distilled water + Tween-80 110 % of control | dose: 25.0 mg/kg/injection, schedule: Q01DX009 (ip), vehicle: distilled water + Tween-80 118 % of control

CC1/C=C/C=C/CC/C=C/C=C/C=C/C=C/C(OC2OC(C)C(O)C(N)C2O)CC2OC(CC(O)C(O)CCC(O)CC(O)CC(O)CC(=O)OC(C)C(C)C1O)CC(O)C2C(=O)O (stereo not drawn)
inactive: dose: 6.25 mg/kg/injection, schedule: Q01DX009 (ip), vehicle: saline with Tween-80 107 % of control | [1] 96 % of control | [2] 102 % of control | [3] 98 % of control | [4] 90 % of control

CSCCC(NC(=O)CNC(=O)CNC(=O)OCc1ccccc1)C(=O)O (stereo not drawn) (HELM PEPTIDE1{[O=C(OCc1ccccc1)[*:2]].G.G.[CSCCC(N[*:1])C(=O)O]}$$$$V2.0)
inactive: [10] 100 % of control | [11] 103 % of control | [12] 108 % of control

CCCCC(NC(=O)CN)C(=O)O (stereo not drawn)
inactive: [10] 103 % of control | [11] 107 % of control | [12] 122 % of control

Oc1ccc2ccccc2c1N=Nc1ccc(F)cc1
inactive: [3] 111 % of control and 113 % of control | [4] 120 % of control | [5] 109 % of control and 123 % of control | [6] 113 % of control and 106 % of control

CCCCCCCCCCNCCS
inactive: dose: 5.0 mg/kg/injection, schedule: Q01DX009 (ip), vehicle: Klucel (hydroxypropylcellulose) (HPC) 88 % of control | dose: 10.0 mg/kg/injection, schedule: Q01DX009 (ip), vehicle: Klucel (hydroxypropylcellulose) (HPC) 99 % of control | dose: 20.0 mg/kg/injection, schedule: Q01DX009 (ip), vehicle: Klucel (hydroxypropylcellulose) (HPC) 104 % of control

CCSc1ncnc2c1ncn2C1OC(CO)C(O)C1O (stereo not drawn)
inactive: [3] 93 % of control | [4] 95 % of control

CC(C)(C)OC(=O)N1CCCC1C(=O)O (stereo not drawn)
inactive: dose: 22.5 mg/kg/injection, schedule: Q01DX009 (ip), vehicle: Klucel (hydroxypropylcellulose) (HPC) 100 % of control | dose: 45.0 mg/kg/injection, schedule: Q01DX009 (ip), vehicle: Klucel (hydroxypropylcellulose) (HPC) 102 % of control | dose: 90.0 mg/kg/injection, schedule: Q01DX009 (ip), vehicle: Klucel (hydroxypropylcellulose) (HPC) 90 % of control

C=C1C(=O)O[C@@H]2[C@H]3O[C@]3(C)CCC=C(C)CC[C@@H]12
inactive: dose: 6.25 mg/kg/injection, schedule: Q01DX009 (ip), vehicle: Klucel (hydroxypropylcellulose) (HPC) 91 % of control | [7] 97 % of control | [8] 98 % of control | [9] 108 % of control
